In brackets after ≈: the same amount, converted by molar mass. Entries after “also recorded” stand apart in the source; their conditions may differ. Like-named read-outs stand apart in the source and are kept apart here. One block for each compound: values may come before it.
How the values were obtained:
Format in all cases: physicochemical
[1] = Crystal form stability on drying or sealed storage
Text: The 4 metastable crystal forms described in Example 4 had lower crystal form stability than each crystal form described in Example 3.

[2] = Suspension competition test of Crystal Form A and Crystal Form G; details: Crystal Form A and Crystal Form G in EtOH and a mixture of MeOH and water, room temperature and 50°C
[3] = High-humidity stability at 90% RH (HPLC purity, crystal form); details: for Purity (% Area) / purity decrease: 90% RH
Text: [table] […] Table E-5: Results of High-Humidity Stability Determination

[4] = High-temperature stability at 60°C (HPLC purity, crystal form); details: for Purity (% Area) / purity decrease: 60°C
Text: [table] […] Table E-4: Results of High-Temperature Stability Determination

[5] = Pressure stability at 1000 Mpa for 5 minutes (HPLC purity, crystal form)
Text: [table] […] Table E-6: Results of Pressure Stability Determination

[6] = Solid-state stability under long-term and accelerated conditions (HPLC purity, crystal form); details: for Purity (% Area) / purity decrease: 10 days
Text: [table] […] Table E-3: Results of Solid-State Stability Determination

[7] = Equilibrium solubility, 24 hours at 37°C in 4 media, with XRPD of residual solid; details: for solubility at 24 h: 37 °C, thermodynamic from solid, read-out: Solubility after 24 h; for Crystal Form: XRPD
Procedure: After 24 hours, samples were taken and centrifuged for separation. The obtained solids were tested by XRPD, and the supernatants were filtered for solubility testing.

[8] = Hygroscopicity by dynamic vapor sorption (DVS) at 25°C
[9] = Crystal form change on heating in the DSC test
[10] = heated to 120 °C for 10 minutes

Structure (SMILES): O=C(O)c1ccc2nc(CN3CCC(c4cccc(OCc5ccc(C6COC6)cc5F)n4)CC3)n(C[C@@H]3CCO3)c2c1 [Crystal Form A, (S)-2-((4-(6-((2-fluoro-4-(oxetan-3-yl)benzyl)oxy)pyridin-2-yl)piperidin-1-yl)methyl)-1-(oxetan-2-ylmethyl)-1H-benzo[d]imidazole-6-carboxylic acid]
crystal form change after drying ([1]; dried at 50°C for 3 hours): no crystal form change is observed
outcome of suspension competition test [2]: transforms into Crystal Form G
Purity (% Area) ([3]; 1 Day): 97.77 % Area
purity decrease ([3]; 1 day): about 0.3%
Purity (% Area) ([3]; 10 days): 97.07 % Area
purity decrease ([3]; 10 days): about 1.0%
Initial Purity (% Area) ([3]; initial, before storage): 98.11 % Area
Purity (% Area) ([4]; 1 day): 98.00 % Area
purity decrease ([4]; 1 day): about 0.1%
Purity (% Area) ([4]; 10 days): 96.98 % Area
purity decrease ([4]; 10 days): about 1.1%
Initial Purity (% Area) ([4]; initial, before storage): 98.11 % Area
Purity (% Area) ([5]; 1000 Mpa, 5 min): 97.44 % Area
purity decrease ([5]; 1000 Mpa, 5 min): about 0.7%
Initial Purity (% Area) ([5]; initial, before pressing): 98.11 % Area
Purity (% Area) ([6]; 25°C/60%RH): 97.50 % Area
Purity (% Area) ([6]; 40°C/75%RH): 97.33 % Area
purity decrease ([6]; accelerated conditions (40°C/75% RH)): about 0.8%
crystal form change ([6]; before and after testing, long-term and accelerated conditions): no crystal form change was observed
Initial Purity (% Area) ([6]; initial, before storage): 98.11 % Area
purity decrease ([6]; long-term conditions (25°C/60% RH)): about 0.6%
Whether the Crystal Form Changed ([7]; 24 h in FaSSGF): YES
Solubility after 24 h ([7]; FaSSGF): 200 µg/mL (≈ 341 µM)
solubility at 24 h ([7]; FaSSIF (fasted-state simulated intestinal fluid), fassif, FaSSIF): 50 µg/mL (≈ 85.2 µM)
solubility at 24 h ([7]; FeSSIF (fed-state simulated intestinal fluid), fessif, FeSSIF): 320 µg/mL (≈ 545 µM)
solubility at 24 h ([7]; purified water, water, H2O): < 100 µg/mL
Crystal Form ([7]; solid after 24 h in FaSSGF): a hydrochloride salt was formed
Crystal Form ([7]; solid after 24 h in FaSSIF): Crystal Form A
Crystal Form ([7]; solid after 24 h in FeSSIF): Crystal Form A
Crystal Form ([7]; solid after 24 h in H2O): Crystal Form A
Sample Weight Change at 80% RH (%) [8]: 0.89%

Structure (SMILES): O=C(O)c1ccc2nc(CN3CCC(c4cccc(OCc5ccc(C6COC6)cc5F)n4)CC3)n(C[C@@H]3CCO3)c2c1 [Crystal Form B, (S)-2-((4-(6-((2-fluoro-4-(oxetan-3-yl)benzyl)oxy)pyridin-2-yl)piperidin-1-yl)methyl)-1-(oxetan-2-ylmethyl)-1H-benzo[d]imidazole-6-carboxylic acid]
crystal form change after drying ([1]; dried at 50°C for 3 hours): transforms into an amorphous form; also recorded: convert into an amorphous form

Structure (SMILES): O=C(O)c1ccc2nc(CN3CCC(c4cccc(OCc5ccc(C6COC6)cc5F)n4)CC3)n(C[C@@H]3CCO3)c2c1 [Crystal Form C, (S)-2-((4-(6-((2-fluoro-4-(oxetan-3-yl)benzyl)oxy)pyridin-2-yl)piperidin-1-yl)methyl)-1-(oxetan-2-ylmethyl)-1H-benzo[d]imidazole-6-carboxylic acid]
crystal form change on heating ([9]; heated to 110°C for 5 minutes): transforms into an amorphous form

Structure (SMILES): O=C(O)c1ccc2nc(CN3CCC(c4cccc(OCc5ccc(C6COC6)cc5F)n4)CC3)n(C[C@@H]3CCO3)c2c1 [Crystal Form D, (S)-2-((4-(6-((2-fluoro-4-(oxetan-3-yl)benzyl)oxy)pyridin-2-yl)piperidin-1-yl)methyl)-1-(oxetan-2-ylmethyl)-1H-benzo[d]imidazole-6-carboxylic acid]
crystal form change on heating [9, 10]: converts into an amorphous form

Structure (SMILES): O=C(O)c1ccc2nc(CN3CCC(c4cccc(OCc5ccc(C6COC6)cc5F)n4)CC3)n(C[C@@H]3CCO3)c2c1 [Crystal Form E, (S)-2-((4-(6-((2-fluoro-4-(oxetan-3-yl)benzyl)oxy)pyridin-2-yl)piperidin-1-yl)methyl)-1-(oxetan-2-ylmethyl)-1H-benzo[d]imidazole-6-carboxylic acid]
crystal form change on heating [9, 10]: converts into an amorphous form

Structure (SMILES): O=C(O)c1ccc2nc(CN3CCC(c4cccc(OCc5ccc(C6COC6)cc5F)n4)CC3)n(C[C@@H]3CCO3)c2c1 [Crystal Form F, (S)-2-((4-(6-((2-fluoro-4-(oxetan-3-yl)benzyl)oxy)pyridin-2-yl)piperidin-1-yl)methyl)-1-(oxetan-2-ylmethyl)-1H-benzo[d]imidazole-6-carboxylic acid]
crystal form change after storage ([1]; sealed conditions at room temperature for 21 days): transforms into Crystal Form D; also recorded: transformed into stable Crystal Form D

Structure (SMILES): O=C(O)c1ccc2nc(CN3CCC(c4cccc(OCc5ccc(C6COC6)cc5F)n4)CC3)n(C[C@@H]3CCO3)c2c1 [Crystal Form H, (S)-2-((4-(6-((2-fluoro-4-(oxetan-3-yl)benzyl)oxy)pyridin-2-yl)piperidin-1-yl)methyl)-1-(oxetan-2-ylmethyl)-1H-benzo[d]imidazole-6-carboxylic acid]
crystal form change after drying ([1]; dried at 50°C for 2 hours): transforms into a weakly crystalline state; also recorded: showed a weak crystalline state

Structure (SMILES): O=C(O)c1ccc2nc(CN3CCC(c4cccc(OCc5ccc(C6COC6)cc5F)n4)CC3)n(C[C@@H]3CCO3)c2c1 [Crystal Form Ix, (S)-2-((4-(6-((2-fluoro-4-(oxetan-3-yl)benzyl)oxy)pyridin-2-yl)piperidin-1-yl)methyl)-1-(oxetan-2-ylmethyl)-1H-benzo[d]imidazole-6-carboxylic acid]
crystal form change on heating [9, 10]: converts into an amorphous form

Structure (SMILES): O=C(O)c1ccc2nc(CN3CCC(c4cccc(OCc5ccc(C6COC6)cc5F)n4)CC3)n(C[C@@H]3CCO3)c2c1 [Crystal Form J, (S)-2-((4-(6-((2-fluoro-4-(oxetan-3-yl)benzyl)oxy)pyridin-2-yl)piperidin-1-yl)methyl)-1-(oxetan-2-ylmethyl)-1H-benzo[d]imidazole-6-carboxylic acid]
crystal form change on heating [9, 10]: transforms into an amorphous form

Structure (SMILES): O=C(O)c1ccc2nc(CN3CCC(c4cccc(OCc5ccc(C6COC6)cc5F)n4)CC3)n(C[C@@H]3CCO3)c2c1 [Crystal Form P, (S)-2-((4-(6-((2-fluoro-4-(oxetan-3-yl)benzyl)oxy)pyridin-2-yl)piperidin-1-yl)methyl)-1-(oxetan-2-ylmethyl)-1H-benzo[d]imidazole-6-carboxylic acid]
crystal form change after drying ([1]; dried at 50°C for 3.5 hours): transforms into an amorphous form; also recorded: convert into an amorphous form

Other lines, results leading:

crystal form change on heating ([9]; heated to 110 °C for 10 minutes): transforms into an amorphous form
Structure (SMILES): O=C(O)c1ccc2nc(CN3CCC(c4cccc(OCc5ccc(C6COC6)cc5F)n4)CC3)n(C[C@@H]3CCO3)c2c1 [Crystal Form K, (S)-2-((4-(6-((2-fluoro-4-(oxetan-3-yl)benzyl)oxy)pyridin-2-yl)piperidin-1-yl)methyl)-1-(oxetan-2-ylmethyl)-1H-benzo[d]imidazole-6-carboxylic acid]

crystal form change on heating [9, 10]: transforms into an amorphous form
Structure (SMILES): O=C(O)c1ccc2nc(CN3CCC(c4cccc(OCc5ccc(C6COC6)cc5F)n4)CC3)n(C[C@@H]3CCO3)c2c1 [Crystal Form L, (S)-2-((4-(6-((2-fluoro-4-(oxetan-3-yl)benzyl)oxy)pyridin-2-yl)piperidin-1-yl)methyl)-1-(oxetan-2-ylmethyl)-1H-benzo[d]imidazole-6-carboxylic acid]

crystal form change on heating ([9]; heated to 105 °C for 10 minutes): transforms into an amorphous form
Structure (SMILES): O=C(O)c1ccc2nc(CN3CCC(c4cccc(OCc5ccc(C6COC6)cc5F)n4)CC3)n(C[C@@H]3CCO3)c2c1 [Crystal Form M, (S)-2-((4-(6-((2-fluoro-4-(oxetan-3-yl)benzyl)oxy)pyridin-2-yl)piperidin-1-yl)methyl)-1-(oxetan-2-ylmethyl)-1H-benzo[d]imidazole-6-carboxylic acid]

crystal form change on heating [9, 10]: transforms into an amorphous form
Structure (SMILES): O=C(O)c1ccc2nc(CN3CCC(c4cccc(OCc5ccc(C6COC6)cc5F)n4)CC3)n(C[C@@H]3CCO3)c2c1 [Crystal Form N, (S)-2-((4-(6-((2-fluoro-4-(oxetan-3-yl)benzyl)oxy)pyridin-2-yl)piperidin-1-yl)methyl)-1-(oxetan-2-ylmethyl)-1H-benzo[d]imidazole-6-carboxylic acid]

crystal form change on heating [9, 10]: transforms into an amorphous form
Structure (SMILES): O=C(O)c1ccc2nc(CN3CCC(c4cccc(OCc5ccc(C6COC6)cc5F)n4)CC3)n(C[C@@H]3CCO3)c2c1 [Crystal Form O, (S)-2-((4-(6-((2-fluoro-4-(oxetan-3-yl)benzyl)oxy)pyridin-2-yl)piperidin-1-yl)methyl)-1-(oxetan-2-ylmethyl)-1H-benzo[d]imidazole-6-carboxylic acid]

Source: patent publication EP4635950A1, “NOVEL CRYSTAL FORM OF GLP-1 RECEPTOR AGONIST, METHOD FOR PREPARING SAME, PHARMACEUTICAL COMPOSITION THEREOF, AND USE THEREOF” (Hangzhou Zhongmeihuadong Pharmaceutical Co., Ltd., priority 2022, dated 2024)
